# Assay results from patent publication US8673548B2, “Genes and polypeptides relating to breast cancers” (Oncotherapy Science, Inc., priority 2006, dated 2014).
# “Also recorded” adds a separate entry of the source.
# Tests used:
# CDK1-cyclin B1 = molecular target: T1, CDK1-cyclin B1 (Homo sapiens, UniProt P06493); test: in vitro kinase assay, CDK1-cyclin B1 phosphorylation of PBK/TOPK; type: biochemical; details: peptide 0-20 μM
# T1 construct: purchased New England Biolabs
# Description: After 30 minutes incubation at 30° C., the reactions were terminated by addition of SDS-sample buffer. After boiling, the protein samples were electrophoresed and autoradiographed.
# (§1) To inhibit the phosphorylation of PBK/TOPK at Thr9 by CDK1-cyclin B1, we designed permeable peptide (pp1-18) identical to the N-terminus (1-18 amino acids) of PBK/TOPK ([…]-G-[…]: SEQ ID NO: 99) was synthesized by Sigma-Aldrich. The efficacy of the peptide blocking the CDK1-cyclin B1-induced phosphorylation of PBK/TOPK was estimated by in vitro kinase assay according to in vitro kinase section. […] The phosphorylation of PBK/TOPK and cyclin B1 proteins were observed by SDS-PAGE and autoradiography. For the cell proliferation assay, T47D and HMEC cells were seeded at 1.3×10^4 cells in a 12-well plate, respectively. At the following day, each concentration (0, 2.5, 5, and 10 μM) of pp1-18 peptide was treated everyday, and cell viability was measured by MTT assay at 5th day. A significance of the pp 1-18 peptide to suppress T47D cell growth was statistically evaluated by the Student's t-test. To inhibit the phosphorylation of PBK/TOPK in mitotic cells by using pp1-18 peptide, T47D cells were seeded at 1×10^5 cells in a 60 mm dish. […]
# T47D cells [1] = test: phase contrast microscopy of cells treated with pp1-18; type: cell-based, human; details: 50 μM peptide
# HMEC cells = test: cell proliferation MTT assay with pp1-18 peptide; type: cell-based, human; details: 0, 2.5, 5 and 10 μM every day; MTT at 5th day
# Source text: as §1, with “dish. Two days after incubation, both nocodazole (0.3 μg/mL) and the permeable peptide (10 μM) were treated for further 18 or 24 hours before collection, and then phosphorylation of PBK/TOPK was investigated by western blotting using anti-PBK/TOPK monoclonal antibody and FACS analysis.” for “dish.”
# T47D cells [2] = test: cell proliferation MTT assay with pp1-18 peptide; type: cell-based, human; details: 0, 2.5, 5 and 10 μM every day; MTT at 5th day
# Source text: as §1, with “dish. Two days after incubation, both nocodazole (0.3 μg/mL) and the permeable peptide (10 μM) were treated for further 18 or 24 hours before collection, and then phosphorylation of PBK/TOPK was investigated by western blotting using anti-PBK/TOPK monoclonal antibody and FACS analysis.” for “dish.”
# PBK/TOPK = test: western blot of PBK/TOPK phosphorylation in nocodazole-treated mitotic cells with pp1-18; type: cell-based, human; details: T47D; nocodazole plus 10 μM peptide, 18 or 24 hours
# Source text: as §1, with “dish. Two days after incubation, both nocodazole (0.3 μg/mL) and the permeable peptide (10 μM) were treated for further 18 or 24 hours before collection, and then phosphorylation of PBK/TOPK was investigated by western blotting using anti-PBK/TOPK monoclonal antibody and FACS analysis.” for “dish.”
# T47D cells [3] = test: FACS cell cycle analysis with nocodazole and pp1-18; type: cell-based, human; details: 24 hours after treatment of nocodazole, 10 μM peptide
# Source text: as §1, with “dish. Two days after incubation, both nocodazole (0.3 μg/mL) and the permeable peptide (10 μM) were treated for further 18 or 24 hours before collection, and then phosphorylation of PBK/TOPK was investigated by western blotting using anti-PBK/TOPK monoclonal antibody and FACS analysis.” for “dish.”
# T1 sequence (P06493 whole entry): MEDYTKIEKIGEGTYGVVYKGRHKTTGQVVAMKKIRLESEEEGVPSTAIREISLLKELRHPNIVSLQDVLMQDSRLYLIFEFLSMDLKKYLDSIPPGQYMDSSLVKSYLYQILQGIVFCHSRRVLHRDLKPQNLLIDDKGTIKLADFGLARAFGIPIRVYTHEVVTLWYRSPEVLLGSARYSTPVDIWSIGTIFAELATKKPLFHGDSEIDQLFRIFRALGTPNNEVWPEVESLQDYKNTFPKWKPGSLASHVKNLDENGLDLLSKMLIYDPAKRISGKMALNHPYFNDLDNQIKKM
# T1 sequence (P14635 whole entry partner): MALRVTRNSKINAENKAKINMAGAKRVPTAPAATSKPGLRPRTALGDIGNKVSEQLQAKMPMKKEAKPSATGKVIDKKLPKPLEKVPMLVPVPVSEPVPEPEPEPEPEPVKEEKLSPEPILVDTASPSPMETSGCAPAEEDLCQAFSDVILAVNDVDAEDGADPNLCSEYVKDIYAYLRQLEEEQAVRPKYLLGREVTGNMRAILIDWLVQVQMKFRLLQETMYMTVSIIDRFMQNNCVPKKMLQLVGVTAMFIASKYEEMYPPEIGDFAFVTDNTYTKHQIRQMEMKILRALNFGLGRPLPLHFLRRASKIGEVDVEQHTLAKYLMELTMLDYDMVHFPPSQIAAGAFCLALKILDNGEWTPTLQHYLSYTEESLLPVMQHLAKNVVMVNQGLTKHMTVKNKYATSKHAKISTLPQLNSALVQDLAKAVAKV
substance,measurement,setting,value
RRRRRRRRRRR-G-MEGISNFKTPSKLSEKKK (RRRRRRRRRRRGMEGISNFKTPSKLSEKKK; N-terminal poly-arginine (R11) and glycine linker; An artificialy designed dominant negative) [pp1-18],phosphorylation of recombinant PBK/TOPK protein by CDK1-cyclin B1,CDK1-cyclin B1,diminished in dose-dependent manner
same,cellular morphology,T47D cells [1],long intercellular bridge; also recorded: prolonged midbodies by abnormal cytokinesis
same,growth of HMEC cells,HMEC cells,did not affect the growth; also recorded: no effect
same,growth of T47D breast cancer cells,T47D cells [2],significantly suppressed cell growth; also recorded: clearly suppressed the growth
same,phosphorylation of PBK/TOPK in mitotic cells,PBK/TOPK,drastically reduced
same,shift to G2/M phase of cell cycle,T47D cells [3],blocked shift to G2/M phase
